Data: the NIST ThermoML archive (doi:10.1016/j.jct.2011.11.027)
Numbers after ± are expanded uncertainties.

Assays:
[1] = 298.15 K; 101.33 kPa; Liquid; Vibrating tube method
[2] = refractive index (Na D-line) (dimensionless); settings: 298.15 K; 101.33 kPa; Liquid; Standard Abbe refractometry
[3] = wn = mass fraction of the nth substance listed; settings: 298.15 K, 101 kPa, Liquid, Vibrating tube method

CCCC[N+]1(C)CCCC1.O=S(=O)([O-])C(F)(F)F [1-butyl-1-methylpyrrolidinium trifluoromethanesulfonate]
mass density [1]: 1252.71 ± 0.45 kg/m3 | refractive index [2]: 1.43287 ± 0.00042

CCCC[N+]1(C)CCCC1.O=S(=O)([N-]S(=O)(=O)C(F)(F)F)C(F)(F)F
mass density [1]: 1394.66 ± 0.58 kg/m3 | refractive index [2]: 1.42302 ± 0.00042

C1CCCCC1 [cyclohexane] + CCCCCCC
mass density ([3]; w2 = 0): 773.88 ± 0.13 kg/m3 | mass density ([3]; w2 = 0.0503): 766.95 ± 0.14 kg/m3 | mass density ([3]; w2 = 0.0991): 760.53 ± 0.14 kg/m3 | mass density ([3]; w2 = 0.2021): 748.16 ± 0.14 kg/m3 | mass density ([3]; w2 = 0.3118): 735.69 ± 0.15 kg/m3 | mass density ([3]; w2 = 0.3926): 726.61 ± 0.15 kg/m3 | mass density ([3]; w2 = 0.5039): 717.21 ± 0.16 kg/m3 | mass density ([3]; w2 = 0.666): 703.79 ± 0.16 kg/m3 | mass density ([3]; w2 = 0.7062): 700.61 ± 0.17 kg/m3 | mass density ([3]; w2 = 0.8061): 692.71 ± 0.17 kg/m3 | mass density ([3]; w2 = 0.9061): 685.62 ± 0.18 kg/m3 | mass density ([3]; w2 = 0.9539): 682.6 ± 0.18 kg/m3

CCCCCCC [heptane] + C1CCCCC1
mass density ([3]; w1 = 1): 679.57 ± 0.18 kg/m3
